# PubChem BioAssay (NCI)
#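 Five compound concentrations were applied to cells in 96-well plates for 48 hours; endpoints were derived by simple linear interpolation of the resulting dose-response curve. Abbreviation: GI50, concentration required for 50% inhibition of growth. TGI: concentration producing complete growth inhibition.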
# Assays:
# Experiment in all cases: inhibition of tumour cell growth, NCI panel, 48 h
# OVCAR-4 ovarian = system: OVCAR-4 ovarian
# HT29 colon = system: HT29 colon
# SK-MEL-2 melanoma = system: SK-MEL-2 melanoma
# PC-3 prostate = system: PC-3 prostate
# MALME-3M melanoma = system: MALME-3M melanoma
# UO-31 renal = system: UO-31 renal
# IGROV1 ovarian = system: IGROV1 ovarian
# SK-MEL-5 melanoma = system: SK-MEL-5 melanoma
# MDA-MB-435 = system: MDA-MB-435
# K-562 leukemia = system: K-562 leukemia
# UACC-62 melanoma = system: UACC-62 melanoma
# UACC-257 melanoma = system: UACC-257 melanoma
# SK-MEL-28 melanoma = system: SK-MEL-28 melanoma
# SW-620 colon = system: SW-620 colon
# MOLT-4 leukemia = system: MOLT-4 leukemia
# 786-0 renal = system: 786-0 renal
# OVCAR-3 ovarian = system: OVCAR-3 ovarian
# LOX IMVI melanoma = system: LOX IMVI melanoma
# CAKI-1 renal = system: CAKI-1 renal
# SNB-75 CNS = system: SNB-75 CNS
# CCRF-CEM leukemia = system: CCRF-CEM leukemia
# OVCAR-8 ovarian = system: OVCAR-8 ovarian
# SF-268 CNS = system: SF-268 CNS
# NCI-H23 lung = system: NCI-H23 lung
# HCT-116 colon = system: HCT-116 colon
# M14 melanoma = system: M14 melanoma
# NCI-H460 lung = system: NCI-H460 lung
# NCI-H226 lung = system: NCI-H226 lung
# SR leukemia = system: SR leukemia
# TK-10 renal = system: TK-10 renal
# MCF7 breast = system: MCF7 breast
# OVCAR-5 ovarian = system: OVCAR-5 ovarian
# BT-549 breast = system: BT-549 breast
# HCC-2998 colon = system: HCC-2998 colon
# NCI-H522 lung = system: NCI-H522 lung
# SNB-19 CNS = system: SNB-19 CNS
# HOP-62 NSCLC = system: HOP-62 NSCLC
# HL-60(TB) leukemia = system: HL-60(TB) leukemia
# T-47D breast = system: T-47D breast
# ACHN renal = system: ACHN renal
# RPMI-8226 leukemia = system: RPMI-8226 leukemia
# A549 NSCLC = system: A549 NSCLC
# U251 CNS = system: U251 CNS
# KM12 colon = system: KM12 colon
# SK-OV-3 ovarian = system: SK-OV-3 ovarian
# RXF 393 renal = system: RXF 393 renal
# SN12C renal = system: SN12C renal
# COLO 205 colon = system: COLO 205 colon
# NCI/ADR-RES ovarian = system: NCI/ADR-RES ovarian
# DU-145 prostate = system: DU-145 prostate
# HCT-15 colon = system: HCT-15 colon
# A498 renal = system: A498 renal
# HS 578T breast = system: HS 578T breast
# SF-295 CNS = system: SF-295 CNS
# EKVX NSCLC = system: EKVX NSCLC
# HOP-92 NSCLC = system: HOP-92 NSCLC
# SF-539 CNS = system: SF-539 CNS
# MDA-MB-231 breast = system: MDA-MB-231 breast
smiles,measurement,setting,value
COc1ccc(C2C3=CONC3CC3CCCCC32)cc1 (stereo not given),TGI,OVCAR-4 ovarian,> 100 µM
same,TGI,HT29 colon,> 100 µM
same,TGI,SK-MEL-2 melanoma,> 100 µM
same,TGI,PC-3 prostate,> 100 µM
same,TGI,MALME-3M melanoma,> 100 µM
same,TGI,UO-31 renal,> 100 µM
same,TGI,IGROV1 ovarian,> 100 µM
same,TGI,SK-MEL-5 melanoma,> 100 µM
same,TGI,MDA-MB-435,> 100 µM
same,TGI,K-562 leukemia,> 100 µM
same,TGI,UACC-62 melanoma,> 100 µM
same,TGI,UACC-257 melanoma,> 100 µM
same,TGI,SK-MEL-28 melanoma,> 100 µM
same,TGI,SW-620 colon,> 100 µM
same,TGI,MOLT-4 leukemia,> 100 µM
same,TGI,786-0 renal,> 100 µM
same,TGI,OVCAR-3 ovarian,> 100 µM
same,TGI,LOX IMVI melanoma,> 100 µM
same,TGI,CAKI-1 renal,> 100 µM
same,TGI,SNB-75 CNS,> 100 µM
same,TGI,CCRF-CEM leukemia,> 100 µM
same,TGI,OVCAR-8 ovarian,> 100 µM
same,TGI,SF-268 CNS,> 100 µM
same,TGI,NCI-H23 lung,> 100 µM
same,TGI,HCT-116 colon,> 100 µM
same,TGI,M14 melanoma,> 100 µM
same,TGI,NCI-H460 lung,> 100 µM
same,TGI,NCI-H226 lung,> 100 µM
same,TGI,SR leukemia,> 100 µM
same,TGI,TK-10 renal,> 100 µM
same,TGI,MCF7 breast,> 100 µM
same,TGI,OVCAR-5 ovarian,> 100 µM
same,TGI,BT-549 breast,> 100 µM
same,TGI,HCC-2998 colon,47.3 µM
same,TGI,NCI-H522 lung,> 100 µM
same,TGI,SNB-19 CNS,> 100 µM
same,TGI,HOP-62 NSCLC,> 100 µM
same,TGI,HL-60(TB) leukemia,> 100 µM
same,TGI,T-47D breast,> 100 µM
same,TGI,ACHN renal,> 100 µM
same,TGI,RPMI-8226 leukemia,> 100 µM
same,TGI,A549 NSCLC,> 100 µM
same,TGI,U251 CNS,> 100 µM
c1ccc2c(c1)ccc1c3ccccc3c(NCCCCN3CCCCC3)cc21,GI50,HT29 colon,3.5 µM
same,TGI,HT29 colon,> 100 µM
same,GI50,KM12 colon,1.75 µM
same,TGI,KM12 colon,3.25 µM
same,GI50,OVCAR-5 ovarian,1.69 µM
same,TGI,OVCAR-5 ovarian,3.2 µM
same,GI50,HCC-2998 colon,1.75 µM
same,TGI,HCC-2998 colon,3.36 µM
same,GI50,A549 NSCLC,3.1 µM
same,TGI,A549 NSCLC,> 100 µM
N#C[C@H]1C(=O)C(c2nc3ccccc3[nH]2)S[C@H]1c1ccccc1 (stereo not given in full),TGI,SK-OV-3 ovarian,> 100 µM
same,TGI,OVCAR-4 ovarian,> 100 µM
same,TGI,HT29 colon,> 100 µM
same,TGI,RXF 393 renal,67.8 µM
same,TGI,MALME-3M melanoma,> 100 µM
same,TGI,KM12 colon,> 100 µM
same,TGI,UO-31 renal,78.8 µM
same,TGI,IGROV1 ovarian,> 100 µM
same,TGI,SK-MEL-5 melanoma,> 100 µM
same,TGI,SN12C renal,91.3 µM
same,TGI,MDA-MB-435,87.8 µM
same,TGI,K-562 leukemia,> 100 µM
same,TGI,UACC-62 melanoma,36.7 µM
same,TGI,UACC-257 melanoma,> 100 µM
same,TGI,COLO 205 colon,> 100 µM
same,TGI,SK-MEL-28 melanoma,> 100 µM
same,TGI,SW-620 colon,> 100 µM
same,TGI,NCI/ADR-RES ovarian,> 100 µM
same,TGI,MOLT-4 leukemia,> 100 µM
same,TGI,786-0 renal,54.2 µM
same,TGI,OVCAR-3 ovarian,> 100 µM
same,TGI,LOX IMVI melanoma,> 100 µM
same,TGI,DU-145 prostate,> 100 µM
same,TGI,CAKI-1 renal,> 100 µM
same,TGI,CCRF-CEM leukemia,> 100 µM
same,TGI,OVCAR-8 ovarian,> 100 µM
same,TGI,HCT-15 colon,> 100 µM
same,TGI,NCI-H23 lung,76.1 µM
same,TGI,HCT-116 colon,> 100 µM
same,TGI,M14 melanoma,> 100 µM
same,TGI,NCI-H460 lung,> 100 µM
same,TGI,NCI-H226 lung,> 100 µM
same,TGI,A498 renal,79 µM
same,TGI,SR leukemia,> 100 µM
same,TGI,HS 578T breast,> 100 µM
same,TGI,TK-10 renal,> 100 µM
same,TGI,MCF7 breast,> 100 µM
same,TGI,OVCAR-5 ovarian,> 100 µM
same,TGI,BT-549 breast,92.4 µM
same,TGI,HCC-2998 colon,> 100 µM
same,TGI,SF-295 CNS,86.2 µM
same,TGI,NCI-H522 lung,52.6 µM
same,TGI,SNB-19 CNS,> 100 µM
same,TGI,EKVX NSCLC,> 100 µM
same,TGI,HL-60(TB) leukemia,> 100 µM
same,TGI,ACHN renal,57.6 µM
same,TGI,RPMI-8226 leukemia,89.7 µM
same,TGI,HOP-92 NSCLC,67.3 µM
same,TGI,A549 NSCLC,> 100 µM
same,TGI,U251 CNS,57.2 µM
C[C@@H]1C=C(CCCCCCCCCCC[C@H](O)[C@@H]2CCC(=O)O2)C(=O)O1,GI50,SK-OV-3 ovarian,51.7 µM
same,TGI,SK-OV-3 ovarian,> 100 µM
same,GI50,OVCAR-4 ovarian,> 100 µM
same,TGI,OVCAR-4 ovarian,> 100 µM
same,GI50,HT29 colon,42.4 µM
same,TGI,HT29 colon,> 100 µM
same,GI50,SK-MEL-2 melanoma,40.8 µM
same,TGI,SK-MEL-2 melanoma,> 100 µM
same,GI50,PC-3 prostate,30.5 µM
same,TGI,PC-3 prostate,92.9 µM
same,GI50,RXF 393 renal,47.2 µM
same,TGI,RXF 393 renal,> 100 µM
same,GI50,MALME-3M melanoma,19.1 µM
same,TGI,MALME-3M melanoma,46.6 µM
same,GI50,KM12 colon,23.6 µM
same,TGI,KM12 colon,65 µM
same,GI50,UO-31 renal,20.1 µM
same,TGI,UO-31 renal,55.6 µM
same,GI50,IGROV1 ovarian,13.7 µM
same,TGI,IGROV1 ovarian,67.9 µM
same,GI50,SK-MEL-5 melanoma,14.5 µM
same,TGI,SK-MEL-5 melanoma,28.1 µM
same,GI50,SN12C renal,25.3 µM
same,TGI,SN12C renal,82.8 µM
same,GI50,MDA-MB-435,24.3 µM
same,TGI,MDA-MB-435,60.2 µM
same,GI50,K-562 leukemia,20.4 µM
same,TGI,K-562 leukemia,56.7 µM
same,GI50,UACC-62 melanoma,21.2 µM
same,TGI,UACC-62 melanoma,85.7 µM
same,GI50,UACC-257 melanoma,43.2 µM
same,TGI,UACC-257 melanoma,> 100 µM
same,GI50,COLO 205 colon,19.1 µM
same,TGI,COLO 205 colon,40.6 µM
same,GI50,SK-MEL-28 melanoma,78.3 µM
same,TGI,SK-MEL-28 melanoma,> 100 µM
same,GI50,SW-620 colon,37.6 µM
same,TGI,SW-620 colon,> 100 µM
same,GI50,NCI/ADR-RES ovarian,12.1 µM
same,TGI,NCI/ADR-RES ovarian,34 µM
same,GI50,MOLT-4 leukemia,21.6 µM
same,TGI,MOLT-4 leukemia,42.6 µM
same,GI50,786-0 renal,23.6 µM
same,TGI,786-0 renal,> 100 µM
same,GI50,OVCAR-3 ovarian,16.4 µM
same,TGI,OVCAR-3 ovarian,44.7 µM
same,GI50,DU-145 prostate,24.1 µM
same,TGI,DU-145 prostate,> 100 µM
same,GI50,CAKI-1 renal,35.8 µM
same,TGI,CAKI-1 renal,> 100 µM
same,GI50,SNB-75 CNS,> 100 µM
same,TGI,SNB-75 CNS,> 100 µM
same,GI50,CCRF-CEM leukemia,17.6 µM
same,TGI,CCRF-CEM leukemia,47.4 µM
same,GI50,OVCAR-8 ovarian,23.4 µM
same,TGI,OVCAR-8 ovarian,69 µM
same,GI50,HCT-15 colon,25.5 µM
same,TGI,HCT-15 colon,> 100 µM
same,GI50,SF-268 CNS,40.3 µM
same,TGI,SF-268 CNS,> 100 µM
same,GI50,NCI-H23 lung,24.2 µM
same,TGI,NCI-H23 lung,99.1 µM
same,GI50,HCT-116 colon,28 µM
same,TGI,HCT-116 colon,> 100 µM
same,GI50,M14 melanoma,25.1 µM
same,TGI,M14 melanoma,87.9 µM
same,GI50,NCI-H460 lung,31.2 µM
same,TGI,NCI-H460 lung,> 100 µM
same,GI50,NCI-H226 lung,15.9 µM
same,TGI,NCI-H226 lung,68.5 µM
same,GI50,A498 renal,25.6 µM
same,TGI,A498 renal,68.7 µM
same,GI50,TK-10 renal,22.9 µM
same,TGI,TK-10 renal,63.8 µM
same,GI50,MCF7 breast,39.2 µM
same,TGI,MCF7 breast,> 100 µM
same,GI50,BT-549 breast,47.4 µM
same,TGI,BT-549 breast,> 100 µM
same,GI50,HCC-2998 colon,2.26 µM
same,TGI,HCC-2998 colon,16.7 µM
same,GI50,SF-295 CNS,19.8 µM
same,TGI,SF-295 CNS,48.6 µM
same,GI50,NCI-H522 lung,15.9 µM
same,TGI,NCI-H522 lung,49.2 µM
same,GI50,SNB-19 CNS,86.5 µM
same,TGI,SNB-19 CNS,> 100 µM
same,GI50,HOP-62 NSCLC,40.2 µM
same,TGI,HOP-62 NSCLC,> 100 µM
same,GI50,EKVX NSCLC,33.2 µM
same,TGI,EKVX NSCLC,> 100 µM
same,GI50,T-47D breast,32.7 µM
same,TGI,T-47D breast,65.2 µM
same,GI50,ACHN renal,17.9 µM
same,TGI,ACHN renal,49.3 µM
same,GI50,SF-539 CNS,38.8 µM
same,TGI,SF-539 CNS,> 100 µM
same,GI50,A549 NSCLC,38.1 µM
same,TGI,A549 NSCLC,> 100 µM
same,GI50,U251 CNS,24.5 µM
same,TGI,U251 CNS,81.7 µM
same,GI50,MDA-MB-231 breast,19.4 µM
same,TGI,MDA-MB-231 breast,88.7 µM
